Here are results for 3 compounds from ChEMBL document CHEMBL1201862, “PubChem BioAssay data set” (2004).

Holding throughout (format): functional
Test [1] is described as follows: Luminescence Cell-Based Dose Response HTS to Identify Inhibitors of 5'UTR Stem-Loop Driven Prion Protein mRNA Translation in H4 Neuroglioblastoma Cells. [Related pubchem assays: 1827 (Project Summary), 1813 (Primary HTS)].
Test [2] deals with Mitogen-activated protein kinase 9 (Homo sapiens, UniProt P45984).
The target of test [3] is Leucine-rich repeat serine/threonine-protein kinase 2 (Homo sapiens, UniProt Q5S007).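 Also: value from a broad kinome-wide panel profiling study in which LRRK2 was one of the kinases tested.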
Sequence of Leucine-rich repeat serine/threonine-protein kinase 2 (Q5S007 whole entry): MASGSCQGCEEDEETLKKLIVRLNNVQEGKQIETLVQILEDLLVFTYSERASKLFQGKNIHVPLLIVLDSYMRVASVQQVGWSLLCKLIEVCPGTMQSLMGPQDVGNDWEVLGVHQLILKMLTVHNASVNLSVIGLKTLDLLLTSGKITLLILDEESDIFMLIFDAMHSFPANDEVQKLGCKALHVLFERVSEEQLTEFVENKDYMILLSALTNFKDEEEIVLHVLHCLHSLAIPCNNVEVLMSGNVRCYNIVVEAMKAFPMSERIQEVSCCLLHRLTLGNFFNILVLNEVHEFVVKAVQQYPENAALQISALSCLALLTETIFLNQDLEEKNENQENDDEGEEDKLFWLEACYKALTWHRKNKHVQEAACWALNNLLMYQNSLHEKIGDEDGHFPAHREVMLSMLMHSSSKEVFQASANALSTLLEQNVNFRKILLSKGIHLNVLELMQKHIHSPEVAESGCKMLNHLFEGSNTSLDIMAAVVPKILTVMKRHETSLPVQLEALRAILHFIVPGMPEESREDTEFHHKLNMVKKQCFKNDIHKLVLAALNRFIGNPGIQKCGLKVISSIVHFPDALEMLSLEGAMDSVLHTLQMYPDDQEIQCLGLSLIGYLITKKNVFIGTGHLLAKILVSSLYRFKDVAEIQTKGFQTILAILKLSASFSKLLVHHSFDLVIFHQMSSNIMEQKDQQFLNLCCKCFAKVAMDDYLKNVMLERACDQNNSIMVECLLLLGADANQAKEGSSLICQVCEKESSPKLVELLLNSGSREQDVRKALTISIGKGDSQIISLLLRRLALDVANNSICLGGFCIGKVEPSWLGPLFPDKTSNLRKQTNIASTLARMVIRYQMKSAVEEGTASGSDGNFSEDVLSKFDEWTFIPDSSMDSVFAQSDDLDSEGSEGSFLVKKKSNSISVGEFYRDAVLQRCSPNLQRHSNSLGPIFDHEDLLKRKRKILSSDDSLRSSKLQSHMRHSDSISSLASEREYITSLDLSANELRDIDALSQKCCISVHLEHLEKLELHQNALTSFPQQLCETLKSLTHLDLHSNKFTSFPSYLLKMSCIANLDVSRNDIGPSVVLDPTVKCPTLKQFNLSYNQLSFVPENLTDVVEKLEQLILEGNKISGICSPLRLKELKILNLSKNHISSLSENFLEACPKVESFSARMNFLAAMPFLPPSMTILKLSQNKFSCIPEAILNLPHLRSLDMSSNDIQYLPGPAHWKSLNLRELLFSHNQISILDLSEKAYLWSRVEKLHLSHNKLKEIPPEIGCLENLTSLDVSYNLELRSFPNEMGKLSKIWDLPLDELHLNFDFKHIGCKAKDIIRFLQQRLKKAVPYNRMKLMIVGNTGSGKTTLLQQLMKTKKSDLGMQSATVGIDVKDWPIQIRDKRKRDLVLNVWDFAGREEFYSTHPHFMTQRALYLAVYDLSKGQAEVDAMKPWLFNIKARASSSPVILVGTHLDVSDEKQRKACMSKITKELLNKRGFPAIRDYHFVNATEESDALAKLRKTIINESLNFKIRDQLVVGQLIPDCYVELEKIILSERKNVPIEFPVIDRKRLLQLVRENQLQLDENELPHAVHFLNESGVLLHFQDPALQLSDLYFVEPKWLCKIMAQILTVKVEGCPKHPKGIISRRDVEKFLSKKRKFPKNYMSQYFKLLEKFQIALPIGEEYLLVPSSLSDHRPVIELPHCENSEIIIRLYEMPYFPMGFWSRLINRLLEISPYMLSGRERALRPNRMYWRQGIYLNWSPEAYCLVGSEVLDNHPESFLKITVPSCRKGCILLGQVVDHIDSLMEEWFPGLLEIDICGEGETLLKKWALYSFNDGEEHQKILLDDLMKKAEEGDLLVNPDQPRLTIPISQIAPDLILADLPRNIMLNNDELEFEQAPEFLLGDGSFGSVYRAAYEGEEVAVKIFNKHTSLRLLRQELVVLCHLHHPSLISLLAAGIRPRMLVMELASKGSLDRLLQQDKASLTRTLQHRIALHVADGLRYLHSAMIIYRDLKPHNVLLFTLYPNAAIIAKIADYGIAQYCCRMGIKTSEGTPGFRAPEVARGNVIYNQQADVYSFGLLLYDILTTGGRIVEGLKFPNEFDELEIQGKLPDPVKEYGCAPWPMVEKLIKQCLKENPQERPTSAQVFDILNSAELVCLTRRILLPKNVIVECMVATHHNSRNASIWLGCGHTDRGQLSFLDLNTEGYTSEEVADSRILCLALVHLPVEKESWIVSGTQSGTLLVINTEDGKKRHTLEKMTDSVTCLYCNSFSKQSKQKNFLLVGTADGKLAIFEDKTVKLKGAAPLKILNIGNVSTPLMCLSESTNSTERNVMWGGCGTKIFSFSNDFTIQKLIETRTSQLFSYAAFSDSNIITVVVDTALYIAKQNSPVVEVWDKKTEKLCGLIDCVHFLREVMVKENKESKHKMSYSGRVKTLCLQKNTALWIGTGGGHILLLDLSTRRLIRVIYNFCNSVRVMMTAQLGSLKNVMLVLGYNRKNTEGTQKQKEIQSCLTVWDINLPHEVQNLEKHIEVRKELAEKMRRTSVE
Test [4] concerns the target T1, Serine/threonine-protein kinase Chk1 (Homo sapiens, UniProt O14757).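 Also: measured as one member of a kinome-wide kinase profiling panel.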
T1 sequence (O14757 whole entry): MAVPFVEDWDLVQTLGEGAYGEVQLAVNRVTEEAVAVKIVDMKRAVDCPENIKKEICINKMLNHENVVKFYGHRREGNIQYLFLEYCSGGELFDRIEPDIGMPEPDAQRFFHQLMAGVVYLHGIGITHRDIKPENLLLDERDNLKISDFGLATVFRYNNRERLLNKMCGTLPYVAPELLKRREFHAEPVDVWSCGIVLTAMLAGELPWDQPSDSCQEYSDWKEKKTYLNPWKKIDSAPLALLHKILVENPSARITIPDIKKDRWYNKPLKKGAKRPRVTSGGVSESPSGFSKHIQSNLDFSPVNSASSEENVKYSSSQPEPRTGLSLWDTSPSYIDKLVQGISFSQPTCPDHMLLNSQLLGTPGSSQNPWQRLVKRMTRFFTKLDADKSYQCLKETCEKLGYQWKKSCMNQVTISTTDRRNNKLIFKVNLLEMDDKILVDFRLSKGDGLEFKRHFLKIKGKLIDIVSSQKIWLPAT

Test [5] concerns the target Dual specificity mitogen-activated protein kinase kinase 2 (Homo sapiens, UniProt P36507). The test is described as follows: Navigating the Kinome. Panel member name: MAP2K2.
The target in test [6] is Calcium/calmodulin-dependent protein kinase type II subunit alpha (Homo sapiens, UniProt Q9UQM7). Put plainly: Navigating the Kinome. Panel member name: CAMK2A.
Sequence of Calcium/calmodulin-dependent protein kinase type II subunit alpha (Q9UQM7 whole entry): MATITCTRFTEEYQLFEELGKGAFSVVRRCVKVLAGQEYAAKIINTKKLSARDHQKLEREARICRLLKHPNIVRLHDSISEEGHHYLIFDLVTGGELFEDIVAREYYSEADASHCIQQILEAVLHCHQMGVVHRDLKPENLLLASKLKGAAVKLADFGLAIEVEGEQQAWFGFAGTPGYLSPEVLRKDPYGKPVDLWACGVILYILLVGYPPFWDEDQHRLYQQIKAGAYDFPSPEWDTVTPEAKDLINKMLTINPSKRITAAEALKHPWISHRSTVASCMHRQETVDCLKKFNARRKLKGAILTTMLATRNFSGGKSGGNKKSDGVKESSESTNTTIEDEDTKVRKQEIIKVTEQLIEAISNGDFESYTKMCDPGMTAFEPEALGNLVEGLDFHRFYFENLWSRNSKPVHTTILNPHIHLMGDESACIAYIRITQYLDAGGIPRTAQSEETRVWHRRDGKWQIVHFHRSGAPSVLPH
The target of a further test is Activin receptor type-1 (Homo sapiens, UniProt Q04771). Put plainly: Navigating the Kinome. Panel member name: ACVR1.
Sequence of Activin receptor type-1 (Q04771 whole entry): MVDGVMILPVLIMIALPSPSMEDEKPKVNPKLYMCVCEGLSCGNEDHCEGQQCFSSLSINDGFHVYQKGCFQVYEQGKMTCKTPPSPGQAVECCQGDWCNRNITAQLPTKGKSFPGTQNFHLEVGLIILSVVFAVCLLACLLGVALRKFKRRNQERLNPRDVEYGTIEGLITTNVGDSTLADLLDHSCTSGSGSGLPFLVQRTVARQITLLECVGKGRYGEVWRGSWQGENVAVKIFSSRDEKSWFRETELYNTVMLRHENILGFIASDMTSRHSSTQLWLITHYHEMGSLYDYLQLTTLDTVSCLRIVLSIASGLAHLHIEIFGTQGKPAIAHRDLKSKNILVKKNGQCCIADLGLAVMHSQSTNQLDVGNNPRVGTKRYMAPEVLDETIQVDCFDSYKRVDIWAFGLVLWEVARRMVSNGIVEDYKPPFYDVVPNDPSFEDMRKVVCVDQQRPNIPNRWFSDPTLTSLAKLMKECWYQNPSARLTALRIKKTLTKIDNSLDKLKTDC
Test [7] addresses Dual specificity protein kinase CLK2 (Homo sapiens, UniProt P49760).
In the next test the target is T2, Protein RecA (Mycobacterium tuberculosis, UniProt P9WHJ3).
T2 sequence (P9WHJ3 whole entry): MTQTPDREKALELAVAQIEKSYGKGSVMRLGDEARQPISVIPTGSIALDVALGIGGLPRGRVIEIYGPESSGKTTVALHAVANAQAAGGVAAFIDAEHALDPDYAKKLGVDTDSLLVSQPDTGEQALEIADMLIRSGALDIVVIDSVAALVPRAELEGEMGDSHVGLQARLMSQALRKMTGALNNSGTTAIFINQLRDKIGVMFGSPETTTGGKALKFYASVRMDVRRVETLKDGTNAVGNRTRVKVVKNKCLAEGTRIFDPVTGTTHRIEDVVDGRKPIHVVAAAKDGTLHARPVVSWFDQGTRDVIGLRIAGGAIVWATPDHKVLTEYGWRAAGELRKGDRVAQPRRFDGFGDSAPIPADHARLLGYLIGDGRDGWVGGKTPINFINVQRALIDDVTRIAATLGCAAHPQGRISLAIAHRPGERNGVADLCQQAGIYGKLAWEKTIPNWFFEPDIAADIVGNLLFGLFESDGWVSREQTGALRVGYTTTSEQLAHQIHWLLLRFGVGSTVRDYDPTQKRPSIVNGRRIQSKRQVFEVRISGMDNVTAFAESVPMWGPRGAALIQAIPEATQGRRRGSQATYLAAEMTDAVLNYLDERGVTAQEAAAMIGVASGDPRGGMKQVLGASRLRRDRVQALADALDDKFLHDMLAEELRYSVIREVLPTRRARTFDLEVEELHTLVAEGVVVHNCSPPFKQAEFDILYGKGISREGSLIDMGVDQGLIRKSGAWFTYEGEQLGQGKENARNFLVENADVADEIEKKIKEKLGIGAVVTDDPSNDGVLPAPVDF
Put plainly: Fluorescence Cell-Free Homogeneous Dose Retest to Identify Inhibitors of RecA-Intein Splicing Activity. [Related pubchem assays (depositor defined):AID2097, AID2223, AID489010, AID492950].

The target of test [8] is T3, Sentrin-specific protease 7 (Homo sapiens, UniProt Q9BQF6).
T3 sequence (Q9BQF6 whole entry): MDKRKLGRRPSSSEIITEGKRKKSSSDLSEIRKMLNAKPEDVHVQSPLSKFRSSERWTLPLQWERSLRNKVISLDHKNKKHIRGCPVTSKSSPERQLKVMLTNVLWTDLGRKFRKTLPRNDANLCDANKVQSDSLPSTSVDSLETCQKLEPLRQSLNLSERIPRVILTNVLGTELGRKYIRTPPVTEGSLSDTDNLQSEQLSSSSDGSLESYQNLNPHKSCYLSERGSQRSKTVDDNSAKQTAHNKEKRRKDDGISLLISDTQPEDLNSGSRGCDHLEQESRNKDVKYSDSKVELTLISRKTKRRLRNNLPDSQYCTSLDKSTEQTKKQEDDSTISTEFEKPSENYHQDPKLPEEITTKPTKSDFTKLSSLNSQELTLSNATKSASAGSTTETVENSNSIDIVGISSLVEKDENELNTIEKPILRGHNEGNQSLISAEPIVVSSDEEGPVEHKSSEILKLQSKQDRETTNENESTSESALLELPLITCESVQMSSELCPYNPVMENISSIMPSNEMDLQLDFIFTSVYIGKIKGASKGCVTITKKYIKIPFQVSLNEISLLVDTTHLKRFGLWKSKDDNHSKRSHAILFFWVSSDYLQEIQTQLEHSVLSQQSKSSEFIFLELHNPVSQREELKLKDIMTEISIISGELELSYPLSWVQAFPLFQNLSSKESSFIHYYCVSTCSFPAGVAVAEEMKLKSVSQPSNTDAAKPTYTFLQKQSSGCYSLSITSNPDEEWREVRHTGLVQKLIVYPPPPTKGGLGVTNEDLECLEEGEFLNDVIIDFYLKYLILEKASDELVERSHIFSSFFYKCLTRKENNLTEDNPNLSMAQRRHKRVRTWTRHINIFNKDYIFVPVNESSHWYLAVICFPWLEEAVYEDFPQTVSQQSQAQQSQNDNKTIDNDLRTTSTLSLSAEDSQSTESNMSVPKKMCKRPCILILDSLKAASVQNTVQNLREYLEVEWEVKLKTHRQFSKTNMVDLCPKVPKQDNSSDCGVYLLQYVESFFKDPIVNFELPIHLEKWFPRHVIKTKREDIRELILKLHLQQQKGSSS
Put plainly: SENP7 protease inhibitors, SAR follow-up, biochemical, luminescence (AID 504497).

Calls of active or inactive are those of the source.

Sequence of Mitogen-activated protein kinase 9 (P45984 whole entry): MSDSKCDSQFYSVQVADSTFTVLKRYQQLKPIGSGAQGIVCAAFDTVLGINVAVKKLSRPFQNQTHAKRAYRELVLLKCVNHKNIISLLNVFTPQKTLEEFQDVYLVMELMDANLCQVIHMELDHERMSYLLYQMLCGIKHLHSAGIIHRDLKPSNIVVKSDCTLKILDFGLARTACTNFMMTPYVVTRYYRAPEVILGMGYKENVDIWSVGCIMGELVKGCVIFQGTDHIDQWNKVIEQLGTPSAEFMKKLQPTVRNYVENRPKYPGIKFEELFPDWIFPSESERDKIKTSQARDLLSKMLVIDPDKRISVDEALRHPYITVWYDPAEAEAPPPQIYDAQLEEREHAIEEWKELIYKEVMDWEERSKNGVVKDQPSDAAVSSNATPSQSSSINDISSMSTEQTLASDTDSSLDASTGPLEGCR
Sequence of Dual specificity mitogen-activated protein kinase kinase 2 (P36507 whole entry): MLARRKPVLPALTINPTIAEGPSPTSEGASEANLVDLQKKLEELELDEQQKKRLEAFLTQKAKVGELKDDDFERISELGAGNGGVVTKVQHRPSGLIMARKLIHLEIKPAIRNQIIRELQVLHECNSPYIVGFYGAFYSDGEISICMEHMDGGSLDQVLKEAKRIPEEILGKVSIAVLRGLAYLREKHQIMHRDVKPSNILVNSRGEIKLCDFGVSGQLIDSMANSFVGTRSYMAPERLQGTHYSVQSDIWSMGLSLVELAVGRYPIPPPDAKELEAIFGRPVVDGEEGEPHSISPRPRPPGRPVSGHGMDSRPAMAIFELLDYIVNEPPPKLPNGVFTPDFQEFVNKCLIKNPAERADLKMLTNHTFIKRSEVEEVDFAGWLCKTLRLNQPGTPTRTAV
Sequence of Dual specificity protein kinase CLK2 (P49760 whole entry): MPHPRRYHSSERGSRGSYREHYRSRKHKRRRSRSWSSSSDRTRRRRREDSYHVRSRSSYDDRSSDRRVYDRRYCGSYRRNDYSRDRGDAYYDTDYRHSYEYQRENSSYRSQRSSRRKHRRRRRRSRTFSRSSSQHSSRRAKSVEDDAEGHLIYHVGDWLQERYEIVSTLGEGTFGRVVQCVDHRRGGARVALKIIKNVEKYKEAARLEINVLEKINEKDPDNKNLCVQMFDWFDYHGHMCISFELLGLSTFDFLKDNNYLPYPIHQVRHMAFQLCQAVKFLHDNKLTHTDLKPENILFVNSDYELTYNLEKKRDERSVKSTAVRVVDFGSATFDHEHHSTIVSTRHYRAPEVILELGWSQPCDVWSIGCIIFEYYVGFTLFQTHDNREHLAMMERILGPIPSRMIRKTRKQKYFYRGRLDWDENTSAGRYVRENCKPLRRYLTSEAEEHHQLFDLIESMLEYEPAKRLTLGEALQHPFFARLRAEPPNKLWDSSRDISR

`O=Nc1c(-c2c(O)[nH]c3cc(Br)ccc23)[nH]c2ccccc12`: in [1], the EC50 was > 120 µM (not active).

For `COc1cccc(C(C)NC(=O)c2ccc(-c3ccncc3)s2)c1` (stereo not given), the Ki in test [2] is > 3.98 µM (inactive); in test [3] it was > 2.51 µM (inactive); in test [4] it was 0.0794 µM (active); in test [5], > 3.98 µM (inactive); in [6] it was > 3.98 µM (inactive); at Activin receptor type-1, 2.51 µM (active). Besides, the Ki in test [7] was > 3.98 µM (inactive).

On to `Cc1ccc(NC(=O)COc2cccc(/C=C3\SC(=S)N(CCC(=O)O)C3=O)c2)cc1Cl`, for which the EC50 at Protein RecA was 19.1 µM (active). Moreover, the IC50 in test [8] was 12.7 µM (active).

What is called EC50 is the midpoint of the concentration-response curve. As usually defined, the Ki is the equilibrium dissociation constant of an inhibitor or competing ligand from its target. One may read the IC50 as the point on the concentration scale where inhibition reaches its midpoint.
